{
  "source": "patent US20070167478A1",
  "about": "“Biomarkers for sensitivity of proliferative diseases to mtor inhibitors” (priority 2003, published 2007)",
  "format_in_all_cases": "cell-based",
  "key": {"BT549": {"tested_on": "BT549", "experiment": "Antiproliferative assay, methylene blue staining, BT549", "details": "BT549 human tumor cell line, 4 days incubation", "experimental": "(§1) Human tumor cell lines, e.g. the 40-O-(2-hydroxyethyl) rapamycin-sensitive MCF7, BT549 or LNCap lines (IC50 in sub nM range) versus the comparative 40-O-(2-hydroxyethyl) rapamycin-resistant PC3M line (IC50 in the >100 nM range), as well as cell lines with moderate rapamcyin-sensitivity (IC50 in the 1 nM-100 nM range) such as DU145, HCC1937 and MDA-MB231, are added to 96-well plates (500 to 5000 cells/well in 100 μl medium) and incubated for 24 hr. Subsequently, a dilution series of an mTOR inhibitor, e.g. a compound of formula A, e.g. 40-O-(2-hydroxyethyl) rapamycin is made in separate wells and the dilutions are added to the wells. The cells are then re-incubated for 4 days. Methylene blue staining is performed on day 5 and the amount of bound dye (proportional to the number of surviving cells that bind the dye) determined. IC50s are subsequently determined using Softmax 1.2.0 software."}, "PC3M": {"tested_on": "PC3M", "experiment": "Antiproliferative assay, methylene blue staining, PC3M", "details": "PC3M human tumor cell line, 4 days incubation", "experimental": "as §1"}, "MCF7": {"tested_on": "MCF7", "experiment": "Antiproliferative assay, methylene blue staining, MCF7", "details": "MCF7 human tumor cell line, 4 days incubation", "experimental": "as §1"}, "LNCap": {"tested_on": "LNCap", "experiment": "Antiproliferative assay, methylene blue staining, LNCap", "details": "LNCap human tumor cell line, 4 days incubation", "experimental": "as §1"}},
  "note": "pIC50: −log10 of the molar value.",
  "data": [
    {"smiles": "CO[C@H]1C[C@@H]2CC[C@@H](C)[C@@](O)(O2)C(=O)C(=O)N2CCCC[C@H]2C(=O)O[C@H]([C@H](C)C[C@@H]2CC[C@@H](OCCO)[C@H](OC)C2)CC(=O)[C@H](C)/C=C(\\C)[C@@H](O)[C@@H](OC)C(=O)[C@H](C)C[C@H](C)/C=C/C=C/C=C/1C", "note": "[40-O-(2-hydroxyethyl) rapamycin]", "values": [
      {"measurement": "IC50", "setting": "BT549", "result": "sub nM"},
      {"measurement": "pIC50", "setting": "PC3M", "result": "< 7.00"},
      {"measurement": "IC50", "setting": "MCF7", "result": "sub nM"},
      {"measurement": "IC50", "setting": "LNCap", "result": "sub nM"}
    ]}
  ]
}
